Measured values as given in patent US20240261307A1, “INHIBITORS OF SARS-COV-2 VIRAL REPLICATION AND USES THEREOF” (ARIZONA BOARD OF REGENTS ON BEHALF OF THE UNIVERSITY OF …, priority 2021, published 2024).
Entries after “also recorded” stand apart in the source; their conditions may differ. Non-standard residues stand in square brackets, D forms with d. Residues, ends and D or L forms follow the SMILES beside them. No end group written: not given here. Hyp = O=C(O)[C@@H]1C[C@@H](O)CN1; aThr = C[C@H](O)[C@H](N)C(=O)O

What was measured:
[1] = test system: SARS-CoV-2; test: Viral reduction plaque assay in Vero cells; format: cell-based; set-up: key to Inhibition of Infection: ++: Validated strong inhibitor; +/−: Validated modest inhibitor; −: Validated no effect; settings: for Inhibition of Infection: in-vitro experiments, SARS-CoV2; for number of infected cells compared to positive control: Vero cells, increasing concentrations, 4 days
[2] = test system: SARS-CoV-2; test: Cytopathic effect (CPE) assay in Vero cells with P-gp inhibitor CP-100356; format: cell-based; settings: for EC50: Severe acute respiratory syndrome coronavirus 2, read-out: EC50 of inhibition of virus-induced CPE
[3] = test system: SARS-CoV-2; format: cell-based
[4] = test system: West Nile virus (WNV); test: WNV replication in Vero cells by viral foci assay; format: cell-based; settings: 100 μM
From the text: To exclude such possibilities, we tested the ability of any of the 4 active compounds plus one negative control compound to suppress the replication of West Nile virus (WNV), an RNA virus of the unrelated flavivirus family. […] Together, our experiments confirmed compounds ZINC000008077555, ZINC000230464020, ZINC000006623878, and ZINC000085876900 as specific inhibitors of SARS-CoV-2 replication but not interfering with the host cell.
The number of infectious SARS-CoV-2 virions was quantified by viral plaque assay. To this end, Vero cells were incubated with SARS-CoV-2 for 2 hrs and subsequently overlaid with 1% methylcellulose in culture medium. After 3-4 days, the cells were fixed in 10% formalin for 30 min, washed under tap water, and stained with crystal violet. The number of plaques corresponding to infections of individual cells by single virions was counted on a light table. The quantification of infectious WNV virions was performed similarly with the exception that the number of infected cell foci was determined by intracellular staining using a biotinylated anti-WNV-E antibody (clone E16), followed by an HRP-labeled anti-streptavidin antibody. HRP activity was detected with KPL Trueblue substrate (SeraCare).
Viral replication of SARS-CoV-2 in the presence of Mpro inhibitors was measured in Vero or Calu-3 cells in three ways. […] The virus-induced cytopathic effect was measured by determining the fraction of formalin-fixed adherent cells that remained after 3 days (Vero cells) or 4 days (Calu-3 cells). To this end, the cells were stained with crystal violet, PBS-washed, and air-dried. Following resuspension in methanol, crystal violet staining was measured in the spectrophometer at OD594. Cytotoxicity of the compounds was measured in parallel by the staining of uninfected cells incubated with the […]. In a second approach, drug activity was determined in Vero cells directly by viral plaque assay, using between 100-500 Pfu/well of virus and indicated concentrations of Mpro inhibitors. In a third approach, Vero cells were infected with SARS-CoV-2 or WNV at an MOI of 0.01 in the presence of […] of Mpro inhibitors for 2-3 days. Viral replication was measured indirectly at indicated time points by quantifying the titers of infectious virions in the supernatants with viral plaque or foci assays in the absence of the compounds. Viral replication in Calu-3 cells in the presence of indicated concentrations of compounds was determined similarly.

[5] = test system: type I IFNs, ISGs, proinflammatory cytokines; format: cell-based, human; settings: for type I IFNs, proinflammatory cytokines and ISGs in infected cells: cell line not given
[6] = test system: Vero cells; settings: 100 μM, with 2 μM CP-100356
Experimental: Vehicle-treated cells served as controls. The amounts of infectious virions in the cell supernatants were determined 2 days later by viral plaque assay.

Row | Compound | Inhibition of Infection [1] | number of infected cells compared to positive control [1] | activity against virus-induced CPE [2] | SARS-CoV-2 replication (viral titers in culture medium) [3] | EC50 [2] [µM] | suppression of SARS-CoV-2 replication, post-treatment [3] | suppression of SARS-CoV-2 replication, pre-treatment [3] | suppression of viral replication [3] | replication of WNV [4] | type I IFNs, proinflammatory cytokines and ISGs in infected cells [5] | replication of WNV ([4]; listed as ZINC0002304644020) | expression of type I IFNs, ISGs and proinflammatory cytokines vs cells infected without compound [5] | toxicity [6] | replication of WNV ([4]; listed as ZINC00000807555)
1 | CC(C)n1[nH]c(=O)c2c(-c3ccc(O)c(O)c3)c3oc4c(O)c(=O)ccc4c3[nH]c21 [ZINC000085879857, 10-(3,4-dihydroxyphenyl)-6-hydroxy-14-propan-2-yl-8-oxa-13,14,16-triazatetracyclo[7.7.0.02,7.011,15]hexadeca-1,3,6,9,11(15)-pentaene-5,12-dione] | − |  |  |  |  |  |  |  |  |  |  |  |  | 
2 | Nc1ncnc2c1ncn2[C@@H]1O[C@H](COP(=O)(O)OP(=O)(O)OP(=O)(O)OC[C@@H]2O[C@H](n3cnc4c(N)ncnc43)[C@H](O)[C@@H]2O)[C@H](O)[C@@H]1O [ZINC000085591448, [[(2S,3S,4R,5S)-5-(6-aminopurin-9-yl)-3,4-dihydroxyoxolan-2-yl]methoxy-hydroxyphosphoryl] [[(2R,3R,4S,5R)-5-(6-aminopurin-9-yl)-3,4-dihydroxyoxolan-2-yl]methoxy-hydroxyphosphoryl] hydrogen phosphate] | − |  |  |  |  |  |  |  |  |  |  |  |  | 
3 | C[C@H](NC(=O)[C@H](N)Cc1ccc(O)cc1)C(=O)N[C@H](Cc1ccccc1)C(=O)N1C[C@H](O)C[C@H]1C(=O)N[C@@H](Cc1ccc(O)cc1)C(N)=O [ZINC000644163977, (2S,4R)-N-[(2S)-1-amino-3-(4-hydroxyphenyl)-1-oxopropan-2-yl]-1-[(2R)-2-[[(2S)-2-[[(2R)-2-amino-3-(4-hydroxyphenyl)propanoyl]amino]propanoyl]amino]-3-phenylpropanoyl]-4-hydroxypyrrolidine-2-carboxamide] (H-[dY]A[dF][Hyp]Y-NH2) | +/− | modest | negligible activity | did not |  |  |  |  |  |  |  |  |  | 
4 | C[C@H](O)[C@H](N)C(=O)N[C@@H](Cc1ccc(O)cc1)C(=O)N[C@@H](CCCCN)C(=O)O [ZINC000005462364, (2S)-6-amino-2-[[(2S)-2-[[(2S,3S)-2-amino-3-hydroxybutanoyl]amino]-3-(4-hydroxyphenyl)propanoyl]amino]hexanoic acid] (H-[aThr]-Tyr-Lys-OH) | − |  |  |  |  |  |  |  |  |  |  |  |  | 
5 | COc1ccc(CNC(=O)Cc2c(C)c3ccc(O)c(O)c3oc2=O)c(OC)c1 [ZINC000006623878, 2-(7,8-dihydroxy-4-methyl-2-oxochromen-3-yl)-N-[(2,4-dimethoxyphenyl)methyl]acetamide] | ++ | significant drop |  | suppress SARS-CoV-2 replication | 4.6 to 22.6 | significant suppression | significant suppression | approximately 10 fold | did not significantly restrict replication of WNV; also recorded: do not impact WNV replication | enhance |  |  |  | 
6 | COc1cc([C@H](CC(=O)NCCc2ccc(O)c(O)c2)c2c(O)nc3ccccn3c2=O)cc2c1OCCO2 [ZINC000230464020, (3S)-N-[2-(3,4-dihydroxyphenyl)ethyl]-3-(2-hydroxy-4-oxopyrido[1,2-a]pyrimidin-3-yl)-3-(5-methoxy-2,3-dihydro-1,4-benzodioxin-7-yl)propanamide] |  | significant drop |  | suppress SARS-CoV-2 replication | 4.6 to 22.6 | significant suppression | significant suppression | approximately 10 fold | did not significantly restrict replication of WNV | enhance | do not impact WNV replication | significantly higher expression |  | 
7 | RYLGYL [ZINC000097972782, (2S)-2-[[(2S)-2-[[2-[[(2S)-2-[[(2S)-2-[[(2S)-2-amino-5-(diaminomethylideneamino)pentanoyl]amino]-3-(4-hydroxyphenyl)propanoyl]amino]-4-methylpentanoyl]amino]acetyl]amino]-3-(4-hydroxyphenyl)propanoyl]amino]-4-methylpentanoic acid] | − |  |  |  |  |  |  |  |  |  |  |  |  | 
8 | COc1ccc(-c2coc3c4c(cc(O)c3c2=O)OC(=O)C[C@@H]4c2ccc(OCC(N)=O)cc2)cc1 [ZINC000085876900, 2-[4-[(10R)-5-hydroxy-3-(4-methoxyphenyl)-4,8-dioxo-9,10-dihydropyrano[2,3-h]chromen-10-yl]phenoxy]acetamide] |  | significant drop |  | suppress SARS-CoV-2 replication | 4.6 to 22.6 | significant suppression | significant suppression | approximately 10 fold | did not significantly restrict replication of WNV; also recorded: do not impact WNV replication | enhance |  | significantly higher expression | toxic | 
9 | NC(=O)CC[C@H](NC(=O)OCc1ccccc1)C(=O)NCCc1ccc(F)cc1 [ZINC000008077555, benzyl N-[(2S)-5-amino-1-[2-(4-fluorophenyl)ethylamino]-1,5-dioxopentan-2-yl]carbamate] | +/− | significant drop |  | suppress SARS-CoV-2 replication | 4.6 to 22.6 |  |  | approximately 10 fold | did not significantly restrict replication of WNV | enhance |  |  |  | do not impact WNV replication
